Patent US11351173B2, “Substituted pyrrolo[1,2-a]pyrimidines and their use in the treatment of medical disorders” (Bial—R&D Investments, S.A., priority 2014, dated 2022)
In brackets after ≈: the same amount, converted by molar mass.

Tests used:
physchem = details: water, Compound Solubility in Water
[1] = target: T1, glucocerebrosidase (Gcase) (Homo sapiens, UniProt P04062); assay: Glucocerebrosidase (Gcase) activation assay, 4-methylumbelliferyl-beta-D-glucopyranoside substrate, fluorescence readout; format: biochemical; details: for activation at 0.1 µM / Percent Gcase Activation, 0.1 μM Test Compound: test compound at 0.1 μM; for activation at 0.1 µM: read-out: Percent Gcase Activation, 0.1 μM Test Compound; for activation at 1 µM / Percent Gcase Activation, 1 μM Test Compound: test compound at 1.0 μM; for activation at 1 µM: read-out: Percent Gcase Activation, 1 μM Test Compound
T1 construct: micellar solution containing 10 nM GCase and 100 nM saposin C
T1 sequence (P04062 40-536): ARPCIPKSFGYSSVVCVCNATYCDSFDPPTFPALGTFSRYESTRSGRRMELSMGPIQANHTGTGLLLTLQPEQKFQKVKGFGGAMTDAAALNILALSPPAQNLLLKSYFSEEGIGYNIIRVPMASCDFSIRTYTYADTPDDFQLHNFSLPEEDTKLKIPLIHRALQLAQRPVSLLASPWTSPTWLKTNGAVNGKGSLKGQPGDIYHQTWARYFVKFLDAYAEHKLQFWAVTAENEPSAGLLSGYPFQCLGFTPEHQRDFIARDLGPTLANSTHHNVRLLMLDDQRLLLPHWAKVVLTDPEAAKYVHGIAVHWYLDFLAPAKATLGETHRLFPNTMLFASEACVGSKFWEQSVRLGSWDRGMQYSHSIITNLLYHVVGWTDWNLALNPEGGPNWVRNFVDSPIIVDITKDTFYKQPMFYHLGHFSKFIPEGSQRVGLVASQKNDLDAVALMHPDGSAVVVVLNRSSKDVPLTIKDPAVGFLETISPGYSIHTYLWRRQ
Method in brief: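 10 nM GCase with 100 nM saposin C pre-incubated 30 min with compound in pH 4.7 phosphate/citrate PS/triton micelles, then mixed 1:1 with 2 mM 4-methylumbelliferyl-β-glucoside micellar substrate (stock level). Run 15 min at room temperature, stopped at pH 12.5; fluorescence 365/440 nm. Screened at 1.0 and 0.1 μM; 8-point curves from 5 μM.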

[2] = Compound solubility in water; details: water; for solubility: Compound Solubility in Water

Row | Structure (SMILES) | solubility (physchem) | activation at 0.1 µM [1] | activation at 1 µM [1] | solubility ([2]; in water) | Percent Gcase Activation, 0.1 μM Test Compound [1] | Percent Gcase Activation, 1 μM Test Compound [1] | Compound Solubility in Water [2] | solubility [2]
1 | Cc1cc(C)n2ccc(C(=O)NC3CC4CCC(C3)N4CC(F)(F)F)c2n1 (stereo not drawn) [III-128] | 18.9 µg/mL (≈ 49.7 µM) | < 10% | < 30% |  |  |  |  | 
2 | CCCCCC(=O)N1C2CCC1CC(NC(=O)c1ccn3c(C)cc(C)nc13)C2 (stereo not drawn) [III-127] | 6.5 µg/mL (≈ 16.4 µM) | < 10% | < 30% |  |  |  |  | 
3 | CCCCO[C@H]1CC[C@H](NC(=O)c2ccn3c(COC)cc(CCC)nc23)CC1 [III-269] |  | 10 to 20% | > 60% | 0.8 µg/mL (≈ 1.99 µM) |  |  |  | 
4 | Cc1cc(C)n2ccc(C(=O)Nc3ccc(-c4ccco4)cc3)c2n1 [III-9] |  |  |  |  | *** (greater than 20% Gcase activation) | +++ (Gcase activation greater than 60%) | <0.1 µg/mL | 
5 | Cc1cc(C)n2ccc(C(=O)NC3CCN(c4ccsc4)CC3)c2n1 [III-115] |  | < 10% | 30 to 60% |  |  |  |  | 1.9 µg/mL (≈ 5.36 µM)
6 | Cc1cc(C)n2ccc(C(=O)NC3CCOc4ccc(F)c(F)c43)c2n1 (stereo not drawn) [III-172] |  | > 20% | > 60% |  |  |  |  | 1.5 µg/mL (≈ 4.2 µM)
7 | CO[C@H]1CC[C@@H](C(C)(C)NC(=O)c2ccn3c(C)cc(C)nc23)CC1 [III-238] |  | 10 to 20% | > 60% | 1.6 µg/mL (≈ 4.66 µM) |  |  |  | 
8 | CCCCCOc1ccc(NC(=O)c2ccn3c(C)cc(C)nc23)cc1 [III-6] |  | > 20% | > 60% |  |  |  |  | < 0.1 µg/mL
9 | CO[C@H]1CC[C@H](C(C)(C)NC(=O)c2ccn3c(C)cc(C)nc23)CC1 [III-236] |  | 10 to 20% | > 60% | 9.9 µg/mL (≈ 28.8 µM) |  |  |  | 
10 | Cc1cc(C)n2ccc(C(=O)NC3CCCC4(CCCCO4)C3)c2n1 (stereo not drawn) [III-81] |  |  |  |  | * (less than 10% Gcase activation) | + (less than 30% Gcase activation) | 9.8 µg/mL | 
11 | Cc1cc(C)n2ccc(C(=O)N[C@H]3CC[C@H](Oc4cccs4)CC3)c2n1 [III-190] |  | 10 to 20% | > 60% |  |  |  |  | 4.2 µg/mL (≈ 11.4 µM)
12 | CCCCO[C@H]1CC[C@H](NC(=O)c2ccn3c(C4CC4)cc(C)nc23)CC1 [III-44] |  | 10 to 20% | > 60% |  |  |  |  | 2.3 µg/mL (≈ 6.22 µM)
13 | Cc1cc(C)n2ccc(C(=O)Nc3ccc(-c4ncco4)cc3C)c2n1 [III-150] |  | > 20% | > 60% |  |  |  |  | 0.1 µg/mL (≈ 0.289 µM)
14 | Cc1cc(C)n2ccc(C(=O)NC3CCc4ccccc4C3)c2n1 (stereo not drawn) [III-228] |  | > 20% | > 60% | 0.9 µg/mL (≈ 2.82 µM) |  |  |  | 
15 | CCC(F)(F)CN1CCC(NC(=O)c2ccn3c(C)cc(C)nc23)CC1 [III-204] |  | < 10% | < 30% | 21.1 µg/mL (≈ 57.9 µM) |  |  |  | 
16 | COc1cc(-c2cnco2)ccc1NC(=O)c1ccn2c(C)cc(C)nc12 [III-110] |  | > 20% | > 60% |  |  |  |  | 0.4 µg/mL (≈ 1.1 µM)
17 | Cc1cc(C)n2ccc(C(=O)NC3(C)CCOc4c(F)cccc43)c2n1 (stereo not drawn) [III-133] |  | > 20% | > 60% |  |  |  |  | 1.9 µg/mL (≈ 5.38 µM)
18 | CCCCCO[C@H]1CC[C@H](NC(=O)c2ccn3c(C(F)F)cc(C(F)F)nc23)CC1 [III-25] |  | > 20% | > 60% |  |  |  |  | 0.4 µg/mL (≈ 0.931 µM)
19 | Cc1cc(C)n2ccc(C(=O)NC3CCC(C(=O)N(C)C4CC4)CC3)c2n1 (stereo not drawn) [III-134] |  | < 10% | < 30% |  |  |  |  | 38.5 µg/mL (≈ 104 µM)
20 | Cc1cc(C)n2ccc(C(=O)Nc3ccc4c(c3)C(O)CC4)c2n1 (stereo not drawn) [III-222] |  | < 10% | < 30% | 0.5 µg/mL (≈ 1.56 µM) |  |  |  | 
21 | CCCc1cc(COC)n2ccc(C(=O)NC3(C)CCOc4cc(F)c(F)cc43)c2n1 (stereo not drawn) [III-267] |  | < 10% | > 60% | 0.4 µg/mL (≈ 0.931 µM) |  |  |  | 
22 | Cc1cc(Cl)nc2c(C(=O)N[C@H]3CC[C@H](OCC(C)C)CC3)ccn12 [III-73] |  | > 20% | > 60% |  |  |  |  | 2 µg/mL (≈ 5.5 µM)
23 | Cc1cc(C)n2ccc(C(=O)N[C@H]3CC[C@H](Oc4cccnc4)CC3)c2n1 [III-206] |  | < 10% | < 30% | 4.1 µg/mL (≈ 11.2 µM) |  |  |  | 
24 | Cc1cc(C)n2ccc(C(=O)N[C@H]3CC[C@H](OC4CC4)CC3)c2n1 [III-286] |  | 10 to 20% | > 60% | 8.8 µg/mL (≈ 26.9 µM) |  |  |  | 
25 | Cc1cc(C)n2ccc(C(=O)NC3CCC(C4CCCO4)CC3)c2n1 (stereo not drawn) [III-199] |  | < 10% | 30 to 60% |  |  |  |  | 12.3 µg/mL (≈ 36 µM)
